Assay results: patent US3989845A, “Anesthetic chlorocyclopropanes” (priority 1974, dated 1976)

Tested on: Mice
Assay: Inhalation anesthesia test in mice, 10 minutes in a rotating drum (pinch, corneal and righting reflex): AC50, LC50 and anesthetic index
Format: in vivo
Details: for AI (anesthetic index, LC50/AC50): calculated from LC50 and AC50, 10 min; for AC50 (minimum concentration required to anesthetize 50% of the mice) / LC50 (minimum concentration required to kill 50% of the mice): inhalation, 10 minutes in rotating drum, at least four graded doses, where two figures are given, the actual value lies between them
Procedure: Mice were exposed to the anesthetic for a period of 10 minutes in a rotating drum. Observations were then made of the pinch reflex, the corneal reflex and the return of the righting reflex. At least four graded doses were employed to determine the minimum concentration required to anesthetize 50% of the mice used (AC50) and the minimum concentration required to kill 50% of the mice (LC50). The anesthetic index (AI) was then calculated from these minimum concentrations.

SMILES	AI (anesthetic index, LC50/AC50)	AC50 (minimum concentration required to anesthetize 50% of the mice)	LC50 (minimum concentration required to kill 50% of the mice)
CC1(F)C(F)(F)C1(Cl)Cl (stereo not drawn) [Example 8, 1,1-diCl-2-CH3-triF-]	4-6	< 1 % volume	4-6 % volume
CC1(Cl)CC1(F)Cl (stereo not drawn) [Example 9, 1,2-Dichloro-1-fluoro-2-methylcyclopropane]	> 2	< 1 % volume	2-4 % volume
FC1(F)C(F)(Cl)C1(Cl)Cl (stereo not drawn) [Example 10, 1,1,2-triCl-triF-]	> 3	1.5 % volume	2-10 % volume
FC(F)(F)C1(F)C(F)(F)C1(Cl)Cl (stereo not drawn) [Example 11, 1,1-diCl-2-CF3-triF-]	~ 2	4 % volume	> 10 % volume
FC1(F)C(F)(Cl)C1(F)Cl (stereo not drawn) [Example 12, 1,2-Dichlorotetrafluorocyclopropane]	~ 2	6-10 % volume	< 20 % volume
FC1(F)C(Cl)(Cl)C1(Cl)Cl [Example 13, 1,1,2,2-tetraCl-diF-]	~ 4	0.25 % volume	1 % volume
FC1C(F)(F)C1(Cl)Cl (stereo not drawn) [Example 14, 1,1-diCl-2,3,3-triF-]	2-3	< 2 % volume	4-6 % volume
